Source: patent US7851493B2, “Phenyl-1,2,4-oxadiazolone derivatives with phenyl group, processes for their preparation and their use as pharmaceuticals” (Sanofi-Aventis, priority 2005, dated 2010)

Experiments:
human PPARdelta = target: T1, human PPARdelta (Homo sapiens, UniProt Q03181); assay: Cellular PPARdelta assay (human GAL4 luciferase reporter, stably transfected HEK cell line); type: cell-based
T1 construct: amino acids S139-Y441; expressed in transfected cells; plasmid pcDNA3
T1 sequence (Q03181 139-441): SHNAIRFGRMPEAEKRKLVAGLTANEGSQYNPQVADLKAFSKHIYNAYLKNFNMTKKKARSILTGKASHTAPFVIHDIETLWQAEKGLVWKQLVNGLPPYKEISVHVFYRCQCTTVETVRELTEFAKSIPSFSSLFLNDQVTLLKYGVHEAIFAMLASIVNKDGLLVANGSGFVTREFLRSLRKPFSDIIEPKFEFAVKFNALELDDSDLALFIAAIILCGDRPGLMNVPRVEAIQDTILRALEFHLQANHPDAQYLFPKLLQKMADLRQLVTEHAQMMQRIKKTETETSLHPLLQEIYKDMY
Procedure: Determination of EC50 Values of PPAR Agonists in the Cellular PPARdelta Assay
(§1) The potency of substances which bind to human PPARdelta and activate it in an agonistic manner is analyzed using a stably transfected HEK cell line (HEK=human embryo kidney) which is referred to here as PPARdelta reporter cell line. In analogy to the assay described for PPARalpha, the PPARdelta reporter cell line also contains two genetic elements, a luciferase reporter element (pdeltaM-GAL4-Luc-Zeo) and a PPARdelta fusion protein (GR-GAL4-humanPPARdelta-LBD) which mediates expression of the luciferase reporter element depending on a PPARdelta ligand. The stably and constitutively expressed fusion protein GR-GAL4-humanPPARdelta-LBD binds in the cell nucleus of the PPARdelta reporter cell line via the GAL4 protein portion to the GAL4 DNA binding motifs 5′-upstream of the luciferase reporter element which is stably integrated in the genome of the cell line. There is only little expression of the luciferase reporter gene in the absence of a PPARdelta ligand if fatty acid-depleted fetal calf serum (cs-FCS) is used in the assay. PPARdelta ligands bind and activate the PPARdelta fusion protein and thereby stimulate expression of the luciferase reporter gene. The luciferase which is formed can be detected by means of chemiluminescence via an appropriate substrate.
Construction of the PPARdelta Reporter Cell Line
The production of the stable PPARdelta reporter cell line is based on a stable HEK-cell clone which was stably transfected with a luciferase reporter element. This step was already described above in the section “construction of the PPARalpha reporter cell line”. In a second step, the PPARdelta fusion protein (GR-GAL4-humanPPARdelta-LBD was stably introduced into this cell clone. For this purpose, the cDNA coding for the N-terminal 76 amino acids of the glucocorticoid receptor (Accession #P04150) was linked to the cDNA section coding for amino acids 1-147 of the yeast transcription factor GAL4 (Accession #P04386). The cDNA of the ligand-binding domain of the human PPARdelta receptor (amino acids S139-Y441; Accession #L07592) was cloned in at the 3′-end of this GR-GAL4 construct. The fusion construct prepared in this way (GR-GAL4-humanPPARdelta-LBD) was recloned into the plasmid pcDNA3 (Invitrogen) in order to enable constitutive expression by the cytomegalovirus promoter. This plasmid was linearized with a restriction endonuclease and stably transfected into the previously described cell clone containing the luciferase reporter element. The resulting PPARdelta reporter cell line which contains a luciferase reporter element and constitutively expresses the PPARdelta fusion protein (GR-GAL4-human PPARdelta-LBD) was isolated by selection with zeocin (0.5 mg/ml) and G418 (0.5 mg/ml).
Assay Procedure and Evaluation
The activity of PPARdelta agonists is determined in a 3-day assay in exact analogy to the procedure already described for the PPARalpha reporter cell line except that the PPARdelta reporter cell line and a specific PPARdelta agonist was used as a standard to control test efficacy.

human PPARalpha = target: T2, human PPARalpha (Homo sapiens, UniProt Q07869); assay: Cellular PPARalpha assay (human GAL4 luciferase reporter, stably transfected HEK cell line); type: cell-based
T2 construct: amino acids S167-Y468; expressed in transfected cells; plasmid pcDNA3
T2 sequence (Q07869 167-468): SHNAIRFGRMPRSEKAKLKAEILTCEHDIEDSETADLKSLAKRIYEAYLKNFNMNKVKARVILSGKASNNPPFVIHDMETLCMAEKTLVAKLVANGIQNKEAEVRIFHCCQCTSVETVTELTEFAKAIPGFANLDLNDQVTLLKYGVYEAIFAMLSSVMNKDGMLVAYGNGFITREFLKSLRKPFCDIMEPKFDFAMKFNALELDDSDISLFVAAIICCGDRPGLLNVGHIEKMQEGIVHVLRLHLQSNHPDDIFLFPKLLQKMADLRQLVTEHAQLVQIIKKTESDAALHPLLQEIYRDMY
Procedure: Determination of EC50 Values of PPAR Agonists in the Cellular PPARalpha Assay
as §1, with “PPARalpha” for “PPARdelta”, “It” for “In analogy to the assay described for PPARalpha, the PPARdelta reporter cell line also”, “(GR-GAL4-humanPPARalpha-LBD)” for “(GR-GAL4-humanPPARdelta-LBD)”, “GR-GAL4-humanPPARalpha-LBD” for “GR-GAL4-humanPPARdelta-LBD”, “weak” for “little”, “stimulate the” for “stimulate”
Construction of the PPARalpha Reporter Cell Line
The PPARalpha reporter cell line was prepared in two stages. Firstly, the luciferase reporter element was constructed and stably transfected into HEK cells. For this purpose, five binding sites of the yeast transcription factor GAL4 (Accession #AF264724) were cloned in 5′-upstream of a 68 bp-long minimal MMTV promoter (Accession #V01175). The minimal MMTV promoter section contains a […] and a TATA element in order to enable efficient transcription by RNA polymerase II. The cloning and sequencing of the GAL4-MMTV construct took place in analogy to the description of Sambrook J. et al. (Molecular cloning, Cold Spring Harbor Laboratory Press, 1989). Then the complete Photinus pyralis gene (Accession #15077) was cloned in 3′-downstream of the GAL4-MMTV element. After sequencing, the luciferase reporter element consisting of five GAL4 binding sites, MMTV promoter and luciferase gene was recloned into a plasmid which confers zeocin resistance in order to obtain the plasmid pdeltaM-GAL4-Luc-Zeo. This vector was transfected into HEK cells in accordance with the statements in Ausubel, F. M. et al. (Current protocols in molecular biology, Vol. 1-3, John Wiley & Sons, Inc., 1995).
In a second step, the PPARalpha fusion protein (GR-GAL4-humanPPARalpha-LBD was introduced into the stable cell clone described. For this purpose, initially the cDNA coding for the N-terminal 76 amino acids of the glucocorticoid receptor (Accession #P04150) was linked to the cDNA section coding for amino acids 1-147 of the yeast transcription factor GAL4 (Accession #P04386). The cDNA of the ligand-binding domain of the human PPARalpha receptor (amino acids S167-Y468; Accession #S74349) was cloned in at the 3′-end of this GR-GAL4 construct. The fusion construct prepared in this way (GR-GAL4-humanPPARalpha-LBD) was recloned into the plasmid pcDNA3 (Invitrogen) in order to enable constitutive expression therein by the cytomegalovirus promoter. This plasmid was linearized with a restriction endonuclease and stably transfected into the previously described cell clone containing the luciferase reporter element. The finished PPARalpha reporter cell line which contains a luciferase reporter element and constitutively expresses the PPARalpha fusion protein (GR-GAL4-human PPARalpha-LBD) was isolated by selection with zeocin (0.5 mg/ml) and G418 (0.5 mg/ml).
The activity of PPARalpha agonists is determined in a 3-day assay, which is described below: […]

| EC50 (human PPARdelta) | EC50 (human PPARalpha) | SMILES |
| --- | --- | --- |
| 0.022 µM | 1.78 µM | COc1cc(OCc2sc(-c3ccc(C(F)(F)F)cc3)nc2CCCS(C)(=O)=O)ccc1-c1noc(=O)[nH]1 [Example 102, 3-{4-[4-(3-Methanesulfonyl-propyl)-2-(4-trifluoromethyl-phenyl)-thiazol-5-ylmethoxy]-2-methoxy-phenyl}-4H-1,2,4-oxadiazol-5-one] |
| 0.056 µM | 0.83 µM | COc1cc(OCc2sc(-c3ccc(C(F)(F)F)cc3)nc2CN2CCC(C(F)(F)F)CC2)ccc1-c1noc(=O)[nH]1 [Example 1, 3-{2-Methoxy-4-[2-(4-trifluoromethyl-phenyl)-4-(4-trifluoromethyl-piperidin-1-ylmethyl)-thiazol-5-ylmethoxy]-phenyl}-4H-[1,2,4]oxadiazol-5-one] |
| 0.171 µM | 1.19 µM | CN(CCO)Cc1nc(-c2ccc(C(F)(F)F)cc2)sc1COc1ccc(-c2noc(=O)[nH]2)c(F)c1 [Example 19, 3-{2-Fluoro-4-[4-{[(2-hydroxy-ethyl)-methyl-amino]-methyl}-2-(4-trifluoromethyl-phenyl)-thiazol-5-ylmethoxy]-phenyl}-4H-[1,2,4]oxadiazol-5-one] |
| 0.003 µM | 0.53 µM | COCCN(CCOC)Cc1nc(-c2ccc(C(F)(F)F)cc2)sc1COc1ccc(-c2noc(=O)[nH]2)c(Cl)c1 [Example 77, 3-{4-[4-{[Bis-(2-methoxy-ethyl)-amino]-methyl}-2-(4-trifluoromethyl-phenyl)-thiazol-5-ylmethoxy]-2-chloro-phenyl}-4H-[1,2,4]oxadiazol-5-one] |
| 0.299 µM | 1.41 µM | CC(=O)OCc1nc(-c2ccc(C(F)(F)F)cc2)sc1COc1ccc(-c2noc(=O)[nH]2)c(F)c1 [Example 33, Acetic acid 5-[3-fluoro-4-(5-oxo-4,5-dihydro-[1,2,4]oxadiazol-3-yl)-phenoxymethyl]-2-(4-trifluoromethyl-phenyl)-thiazol-4-ylmethyl ester] |
| 0.018 µM | 0.664 µM | O=c1[nH]c(-c2ccc(OCc3sc(-c4ccc(C(F)(F)F)cc4)nc3CN3CCC(C(F)(F)F)CC3)cc2OC(F)F)no1 [Example 94, 3-{2-Difluoromethoxy-4-[2-(4-trifluoromethyl-phenyl)-4-(4-trifluoromethyl-piperidin-1-ylmethyl)-thiazol-5-ylmethoxy]-phenyl}-4H-1,2,4-oxadiazol-5-one] |
| 0.153 µM | 2.62 µM | COc1cc(OCc2sc(-c3ccc(C(F)(F)F)cc3)nc2CSC)ccc1-c1noc(=O)[nH]1 [Example 89, 3-{2-Methoxy-4-[4-methylsulfanylmethyl-2-(4-trifluoromethyl-phenyl)-thiazol-5-ylmethoxy]-phenyl}-4H-1,2,4-oxadiazol-5-one] |
| 0.008 µM | 0.315 µM | CCCCc1nc(-c2ccc(C(F)(F)F)cc2)sc1COc1ccc(-c2noc(=O)[nH]2)c(C)n1 [Example 100, 3-{6-[4-Butyl-2-(4-trifluoromethyl-phenyl)-thiazol-5-ylmethoxy]-2-methyl-pyridin-3-yl}-4H-[1,2,4]oxadiazol-5-one] |
| 0.008 µM | 0.483 µM | COc1cc(OCc2sc(-c3ccc(C(F)(F)F)cc3)nc2CCCN2CCSCC2)ccc1-c1noc(=O)[nH]1 [Example 103, 3-{2-Methoxy-4-[4-(3-thiomorpholin-4-yl-propyl)-2-(4-trifluoromethyl-phenyl)-thiazol-5-ylmethoxy]-phenyl}-4H-1,2,4-oxadiazol-5-one] |
| 0.228 µM | 1.21 µM | Cc1cc(OCc2sc(-c3ccc(C(F)(F)F)cc3)nc2CNCCN2CCOCC2)ccc1-c1noc(=O)[nH]1 [Example 51, 3-{2-Methyl-4-[4-[(2-morpholin-4-yl-ethylamino)-methyl]-2-(4-trifluoromethyl-phenyl)-thiazol-5-ylmethoxy]-phenyl}-4H-[1,2,4]oxadiazol-5-one] |
| 0.661 µM | 1.2 µM | COc1ccc(-c2nc(COc3ccc(-c4noc(=O)[nH]4)c(C)c3)c(CN3CCOCC3)o2)cc1 [Example 68, 3-{4-[2-(4-Methoxy-phenyl)-5-morpholin-4-ylmethyl-oxazol-4-ylmethoxy]-2-methyl-phenyl}-4H-[1,2,4]oxadiazol-5-one] |
| 0.003 µM | 0.319 µM | COCc1nc(/C=C/c2ccc(OC)cc2)oc1COc1ccc(-c2noc(=O)[nH]2)c(Cl)c1 [Example 55, 3-(2-Chloro-4-[4-methoxymethyl-2-[2-(4-methoxy-phenyl)-vinyl]-oxazol-5-ylmethoxy]-phenyl)-4H-[1,2,4]oxadiazol-5-one] |
| 0.153 µM | > 10 µM | COc1cc(OCc2sc(-c3ccc(C(F)(F)F)cc3)nc2CNC2CC2)ccc1-c1noc(=O)[nH]1 [Example 15, 3-{4-[4-Cyclopropylaminomethyl-2-(4-trifluoromethyl-phenyl)-thiazol-5-ylmethoxy]-2-methoxy-phenyl}-4H-[1,2,4]oxadiazol-5-one] |
